Data taken from article PMC7070078, “Accelerated identification of serine racemase inhibitor from Centella asiatica” (Scientific Reports, 2020).
Values joined by “and” are separate entries in the source; they are usually repeats but may differ in a detail not shown here. Equal entries are not always repeated.

Key:
[1] = target: T1, serine racemase (Homo sapiens, UniProt Q9GZT4); assay: affinity pull-down from Centella asiatica extract on immobilized SR, identified by LC-MS/MS and FTIR; format: binding; design: gene SRR; recombinant His-tagged human SR immobilized on Ni-NTA beads
T1 sequence (Q9GZT4 1-340): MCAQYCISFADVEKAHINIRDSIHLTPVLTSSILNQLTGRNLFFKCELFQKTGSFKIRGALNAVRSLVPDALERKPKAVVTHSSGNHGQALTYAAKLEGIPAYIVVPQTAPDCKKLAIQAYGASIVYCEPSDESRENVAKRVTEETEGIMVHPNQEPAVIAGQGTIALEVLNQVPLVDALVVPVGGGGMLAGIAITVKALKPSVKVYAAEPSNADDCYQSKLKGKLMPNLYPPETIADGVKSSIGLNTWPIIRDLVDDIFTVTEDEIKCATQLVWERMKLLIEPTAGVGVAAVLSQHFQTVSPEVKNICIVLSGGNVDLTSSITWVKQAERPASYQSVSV

[2] = target: T1, serine racemase; assay: SR activity assay, reference inhibitor (Supplementary Fig. S6); format: biochemical; design: gene SRR; recombinant His-tagged human SR (1020 bp gene, NM_021947.1), expressed in E. coli
[3] = target: the molecule itself; assay: SEC; Ni-NTA purified SR on Sephadex S-200, 1 ml/min, 20 mM Tris-HCl, 150 mM NaCl, 15 uM PLP pH 8.0

Molecule: C[C@H]1[C@H](C)CC[C@]2(C(=O)O)CC[C@]3(C)C(=CC[C@@H]4[C@@]5(C)C[C@@H](O)[C@H](O)[C@@](C)(CO)[C@@H]5[C@H](O)C[C@]43C)[C@H]12 [madecassic acid]
- affinity pull-down from Centella asiatica extract on immobilized SR, identified [1]: Madecassoside and madecassic acid are the two compounds identified from the CA plant extract binding to SR.

Molecule: O=C(O)CC(=O)O [malonate]
- IC50 [2]: 449 µM

B1: recombinant human serine racemase (enzyme, UniProt Q9GZT4 1-340, looked up)
chain: T1 sequence (Q9GZT4 1-340)
notes: serine racemase, human; printed size 37 kDa; no cleavage is described and the purified protein was later held on Ni-NTA beads; PLP was present in the purification buffers; also called SR; recombinant SR
- stoichiometry N [3]: 2 and 4
